# Measurements reported in US9611256B2, “Alkyne-, azide- and triazole-containing flavonoids as modulators for multidrug resistance in cancers” (The Hong Kong Polytechnic University, priority 2012, dated 2017).
# Assays:
# [1] = target: T1, BCRP (Homo sapiens, UniProt Q9UNQ0); assay: Reversal of BCRP-mediated topotecan resistance in MCF7-MX100 cells (cell proliferation assay); settings: for % of reversion of sensitivity of MCF7-MX100 towards topotecan: triazole dimers at 1.0 μM; for Topotecan resistance of MCF7-MX100 Therapeutic index: (IC50 towards L929 or Raw264.7)/(EC50 for reversing drug resistance)
# T1 sequence (Q9UNQ0 1-655): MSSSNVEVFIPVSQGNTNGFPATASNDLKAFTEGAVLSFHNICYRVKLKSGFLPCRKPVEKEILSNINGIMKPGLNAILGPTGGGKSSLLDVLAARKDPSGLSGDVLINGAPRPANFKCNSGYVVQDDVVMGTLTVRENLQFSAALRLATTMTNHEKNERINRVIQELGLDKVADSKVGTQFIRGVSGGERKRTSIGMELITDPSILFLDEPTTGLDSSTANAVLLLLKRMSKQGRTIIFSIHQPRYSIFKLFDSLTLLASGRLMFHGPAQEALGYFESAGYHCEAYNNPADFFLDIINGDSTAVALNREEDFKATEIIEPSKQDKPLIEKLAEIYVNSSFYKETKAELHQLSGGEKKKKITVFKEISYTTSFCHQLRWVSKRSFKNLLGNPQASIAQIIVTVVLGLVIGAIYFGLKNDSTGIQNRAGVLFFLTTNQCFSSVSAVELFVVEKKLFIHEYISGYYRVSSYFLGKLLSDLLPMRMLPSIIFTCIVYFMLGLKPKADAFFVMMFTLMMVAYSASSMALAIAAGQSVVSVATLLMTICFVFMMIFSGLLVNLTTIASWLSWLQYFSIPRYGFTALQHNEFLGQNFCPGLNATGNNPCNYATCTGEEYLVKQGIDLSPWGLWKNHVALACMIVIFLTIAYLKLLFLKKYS
# [2] = in vitro; settings: mouse
# [3] = tested on: P-gp, MRP1 and BCRP transporters; assay: Selectivity for ABC transporters, determined from % of reversion (Tables 1 and 2); type: cell-based, human; settings: determined from % of reversion in Table 1 (>80% strongly, 79-50% moderately selective)
# From the text: Generally, the triazole dimers library can be divided into mono-selective, dual-selective and multi-selective ABC transporter modulators. Table 2 summarizes the selectivity of different active triazole dimers and some monomeric azides for the ABC transporters. […] From the study, it seems that the simple monomeric azides could be a highly BCRP-selective inhibitor. […] It is possible that differently selective (mono-, dual- and multi-) inhibitors of drug transporters could be potentially useful tools for investigation of complicated drug-resistance phenotypes and eventually, for treatment of drug-resistant cancers caused by overexpression of ABC transporters.
# The selectivity of active triazole compounds for various ABC transporters was determined from the Table 1. It would be considered as strongly selective if it causes >80% of reversion. It would be considered as moderately selective if it results in 79-50% of reversion. Overall, the active triazole compounds can be divided into mono-, dual- and multi-selective for P-gp, MRP1 and BCRP transporters.
SMILES,% of reversion of sensitivity of MCF7-MX100 towards topotecan [1],IC50 at 5 days [2] [µM],"Selectivity for ABC transporters (P-gp, MRP1, BCRP) [3]",Topotecan resistance of MCF7-MX100 Therapeutic index [1]
"O=c1cc(-c2ccc(OCCOCCn3cc(CCCOc4ccc(-c5cc(=O)c6ccc(F)cc6o5)cc4)nn3)cc2)oc2ccccc12 [Ac3Az1, 7-Fluoro-2-(4-(3-(1-(2-(2-(4-(4-oxo-4H-chromen-2-yl)phenoxy)ethoxy)ethyl)-1H-1,2,3-triazol-4-yl)propoxy)phenyl)-4H-chromen-4-one]",about 53.3%,> 100,–,–
"COCOc1cc(OCc2ccccc2)c2c(=O)cc(-c3ccc(OCCCc4cn(CCOCCOc5ccc(-c6cc(=O)c7ccccc7o6)cc5)nn4)cc3)oc2c1 [Ac4Az1, 5-(Benzyloxy)-7-(methoxymethoxy)-2-(4-(3-(1-(2-(2-(4-(4-oxo-4H-chromen-2-yl)phenoxy)ethoxy)ethyl)-1H-1,2,3-triazol-4-yl)propoxy)phenyl)-4H-chromen-4-one]",–,< 12.1,–,–
"Cc1ccc2oc(-c3ccc(OCCCCc4cn(CCOCCOCCOc5ccc(-c6cc(=O)c7cc(C)ccc7o6)cc5)nn4)cc3)cc(=O)c2c1 [Ac5Az3, 6-Methyl-2-(4-(2-(2-(2-(4-(4-(4-(6-methyl-4-oxo-4H-chromen-2-yl)phenoxy)butyl)-1H-1,2,3-triazol-1-yl)ethoxy)ethoxy)ethoxy)phenyl)-4H-chromen-4-one]",–,–,P-gp and MRP1-dual-selectivity,–
"Cc1ccc2oc(-c3ccc(OCCCCc4cn(CCOCCOCCOc5ccc(-c6oc7ccccc7c(=O)c6O)cc5)nn4)cc3)cc(=O)c2c1 [Ac5Az5OH, 3-Hydroxy-2-(4-(2-(2-(2-(4-(4-(4-(6-methyl-4-oxo-4H-chromen-2-yl)phenoxy)butyl)-1H-1,2,3-triazol-1-yl)ethoxy)ethoxy)ethoxy)phenyl)-4H-chromen-4-one]",–,< 12.1,–,–
"Cc1ccc2oc(-c3ccc(OCCCCc4cn(CCOCCOc5ccc(-c6oc7ccccc7c(=O)c6OCc6ccccc6)cc5)nn4)cc3)cc(=O)c2c1 [Ac5Az10, 3-(Benzyloxy)-2-(4-(2-(2-(4-(4-(4-(6-methyl-4-oxo-4H-chromen-2-yl)phenoxy)butyl)-1H-1,2,3-triazol-1-yl)ethoxy)ethoxy)phenyl)-4H-chromen-4-one]",about 80.0%,> 100,mono-BCRP selectivity,>13333.3
"Cc1ccc2oc(-c3ccc(OCCCCc4cn(CCN(CCOc5ccc6c(=O)cc(-c7ccccc7)oc6c5)Cc5ccccc5)nn4)cc3)cc(=O)c2c1 [Ac5Az15, 2-(4-(4-(1-(2-(Benzyl(2-((4-oxo-2-phenyl-4H-chromen-7-yl)oxy)ethyl)amino)ethyl)-1H-1,2,3-triazol-4-yl)butoxy)phenyl)-6-methyl-4H-chromen-4-one]",–,–,P-gp and MRP1-dual-selectivity,–
"Cc1ccc2oc(-c3ccc(OCCCCc4cn(CCOCCOc5ccc(-c6oc7ccccc7c(=O)c6O)cc5)nn4)cc3)cc(=O)c2c1 [Ac5Az100H, 3-Hydroxy-2-(4-(2-(2-(4-(4-(4-(6-methyl-4-oxo-4H-chromen-2-yl)phenoxy)butyl)-1H-1,2,3-triazol-1-yl)ethoxy)ethoxy)phenyl)-4H-chromen-4-one]",–,< 12.1,–,–
"O=c1[nH]c(-c2ccc(OCCCc3cn(CCOCCOc4ccc(-c5cc(=O)c6ccccc6o5)cc4)nn3)cc2)nc2ccccc12 [Ac11Az1, 2-(4-(3-(1-(2-(2-(4-(4-Oxo-4H-chromen-2-yl)phenoxy)ethoxy)ethyl)-1H-1,2,3-triazol-4-yl)propoxy)phenyl)quinazolin-4(3H)-one]",–,> 100,mono-BCRP selectivity,>3225.8
"O=c1[nH]c(-c2ccc(OCCCc3cn(CCOCCOCCOc4ccc(-c5cc(=O)c6ccccc6o5)cc4)nn3)cc2)nc2ccccc12 [Ac11Az2, 2-(4-(3-(1-(2-(2-(2-(4-(4-oxo-4H-chromen-2-yl)phenoxy)ethoxy)ethoxy)ethyl)-1H-1,2,3-triazol-4-yl)propoxy)phenyl)quinazolin-4(3H)-one]",–,< 12.1,–,–
"O=c1cc(-c2ccccc2)oc2cc(OCCCCc3cn(CCOCCOCCOc4ccc(-c5oc6ccccc6c(=O)c5OCc5ccccc5)cc4)nn3)ccc12 [Ac12Az5, 3-(Benzyloxy)-2-(4-(2-(2-(2-(4-(4-((4-oxo-2-phenyl-4H-chromen-7-yl)oxy)butyl)-1H-1,2,3-triazol-1-yl)ethoxy)ethoxy)ethoxy)phenyl)-4H-chromen-4-one]",–,–,"multi-selectivity towards P-gp, MRP1 and BCRP transporters",–
"C#CCOCCOc1ccc2c(=O)cc(-c3ccccc3)oc2c1 [Ac13, 2-Phenyl-7-(2-(prop-2-yn-1-yloxy)ethoxy)-4H-chromen-4-one]",–,32.2,–,–
"O=c1cc(-c2ccc(OCCOCCOCCn3cc(COCCOc4ccc5c(=O)cc(-c6ccccc6)oc5c4)nn3)cc2)oc2ccccc12 [Ac13Az2, 7-(2-((1-(2-(2-(2-(4-(4-Oxo-4H-chromen-2-yl)phenoxy)ethoxy)ethoxy)ethyl)-1H-1,2,3-triazol-4-yl)methoxy)ethoxy)-2-phenyl-4H-chromen-4-one]",–,< 12.1,–,–
"O=c1cc(-c2ccccc2)oc2cc(OCCOCCn3cc(COCCOc4ccc5c(=O)cc(-c6ccccc6)oc5c4)nn3)ccc12 [Ac13Az11, 7-(2-((1-(2-(2-((4-Oxo-2-phenyl-4H-chromen-7-yl)oxy)ethoxy)ethyl)-1H-1,2,3-triazol-4-yl)methoxy)ethoxy)-2-phenyl-4H-chromen-4-one]",–,–,mono-BCRP selectivity,–
"O=c1cc(-c2ccccc2)oc2cc(OCCOCCOCCn3cc(COCCOc4ccc5c(=O)cc(-c6ccccc6)oc5c4)nn3)ccc12 [Ac13Az12, 7-(2-((1-(2-(2-(2-((4-Oxo-2-phenyl-4H-chromen-7-yl)oxy)ethoxy)ethoxy)ethyl)-1H-1,2,3-triazol-4-yl)methoxy)ethoxy)-2-phenyl-4H-chromen-4-one]",–,< 12.1,mono-BCRP selectivity,–
"O=c1cc(-c2ccccc2)oc2cc(OCCOCCOCCn3cc(CN(Cc4ccccc4)Cc4cn(CCOCCOCCOc5ccc6c(=O)cc(-c7ccccc7)oc6c5)nn4)nn3)ccc12 [Ac15Az12, 7,7′-(((((((4,4′-((Benzylazanediyl)bis(methylene))bis(1H-1,2,3-triazole-4,1-diyl))bis(ethane-2,1-diyl))bis(oxy))bis(ethane-2,1-diyl))bis(oxy))bis(ethane-2,1-diyl))bis(oxy))bis(2-phenyl-4H-chromen-4-one)]",–,–,mono-BCRP selectivity,–
"C#CCN(CCOc1ccc2c(=O)cc(-c3ccccc3)oc2c1)Cc1ccccc1 [Ac16, 7-(2-(Benzyl(prop-2-yn-1-yl)amino)ethoxy)-2-phenyl-4H-chromen-4-one]",–,58.2,–,–
"O=c1cc(-c2ccc(OCCOCCn3cc(CN(CCOc4ccc5c(=O)cc(-c6ccccc6)oc5c4)Cc4ccccc4)nn3)cc2)oc2ccccc12 [Ac16Az1, 7-(2-(Benzyl((1-(2-(2-(4-(4-oxo-4H-chromen-2-yl)phenoxy)ethoxy)ethyl)-1H-1,2,3-triazol-4-yl)methyl)amino)ethoxy)-2-phenyl-4H-chromen-4-one]",80.0%,> 100,–,–
"O=c1cc(-c2ccc(OCCOCCOCCn3cc(CN(CCOc4ccc5c(=O)cc(-c6ccccc6)oc5c4)Cc4ccccc4)nn3)cc2)oc2ccccc12 [Ac16Az2, 7-(2-(Benzyl((1-(2-(2-(2-(4-(4-oxo-4H-chromen-2-yl)phenoxy)ethoxy)ethoxy)ethyl)-1H-1,2,3-triazol-4-yl)methyl)amino)ethoxy)-2-phenyl-4H-chromen-4-one]",–,> 100,–,–
"[N-]=[N+]=NCCOCCOCCOc1ccc(-c2oc3ccccc3c(=O)c2OCc2ccccc2)cc1 [Az5, 2-(4-(2-(2-(2-Azidoethoxy)ethoxy)ethoxy)phenyl)-3-(benzyloxy)-4H-chromen-4-one]",–,–,mono-BCRP selectivity,–
"[N-]=[N+]=NCCOCCOCCOc1ccc(-c2cc(=O)c3cc(Cl)cc(Cl)c3o2)cc1 [Az6, 2-(4-(2-(2-(2-Azidoethoxy)ethoxy)ethoxy)phenyl)-6,8-dichloro-4H-chromen-4-one]",–,–,mono-BCRP selectivity,–
